From patent US3989598A (priority 1962, dated 1976)
Converted amounts (≈) assume the structure as drawn.

Legend:
Assay in all cases: bacteriostatic activity, dilution method in nutritive broth
Type in all cases: cell-based
[1] = system: Staphylococcus aureus strain B3; conditions: B3, read-out: Minimal bacteriostatic concentration
[2] = system: Staphylococcus aureus strain Hb; conditions: read-out: Minimal bacteriostatic concentration
[3] = system: Staphylococcus aureus strain Launoy 1; conditions: LAUNOY1, strain Launoy 1 (tetracycline, streptomycin, chloramphenicol and penicillin resistant), read-out: Minimal bacteriostatic concentration
[4] = system: Staphylococcus aureus strain Launoy 2; conditions: LAUNOY2, strain Launoy 2 (tetracycline, streptomycin and penicillin resistant), read-out: Minimal bacteriostatic concentration
[5] = system: Staphylococcus aureus strain 1142 R; conditions: read-out: Minimal bacteriostatic concentration
[6] = system: Staphylococcus aureus strain 3486 R; conditions: read-out: Minimal bacteriostatic concentration
[7] = system: Staphylococcus aureus carbomycin resistant strain; conditions: read-out: Minimal bacteriostatic concentration
[8] = system: Staphylococcus aureus erythromycin resistant strain; conditions: read-out: Minimal bacteriostatic concentration
[9] = system: Staphylococcus aureus novobiocin resistant strain; conditions: read-out: Minimal bacteriostatic concentration
[10] = system: Staphylococcus aureus streptogramin resistant strain; conditions: read-out: Minimal bacteriostatic concentration
[11] = system: Staphylococcus aureus actinomycin resistant strain; conditions: read-out: Minimal bacteriostatic concentration
[12] = system: Staphylococcus aureus strain 662 R; conditions: read-out: Minimal bacteriostatic concentration
[13] = system: Micrococcus lysodeikticus; conditions: Micrococcus luteus, read-out: Minimal bacteriostatic concentration
[14] = system: Gaffkya tetragena (Fac.Phie); conditions: read-out: Minimal bacteriostatic concentration
[15] = system: Sarcina lutea - ATCC 9341; conditions: Micrococcus luteus, ATCC9341, read-out: Minimal bacteriostatic concentration
Sarcina alba (Fac.Phie) = conditions: read-out: Minimal bacteriostatic concentration
[16] = system: Streptococcus faecalis (Thiercelin's enterococcus Fac.Phie); conditions: read-out: Minimal bacteriostatic concentration
[17] = system: Streptococcus faecalis ATCC 9790; conditions: Enterococcus faecalis, ATCC9790, read-out: Minimal bacteriostatic concentration
[18] = system: Streptococcus viridans (Institut Pasteur); conditions: read-out: Minimal bacteriostatic concentration
[19] = system: Streptococcus pyogenes Hemolyticus (strain Dig 7, Instut Pasteur); conditions: read-out: Minimal bacteriostatic concentration
[20] = system: Diplococcus pneumoniae (strain Til. Institut Pasteur); conditions: Streptococcus pneumoniae, read-out: Minimal bacteriostatic concentration
[21] = system: Neisseria catarrhalis (Fac.Phie); conditions: read-out: Minimal bacteriostatic concentration
[22] = system: Corynebacterium pseudodiphtericum (Fac.Phie); conditions: read-out: Minimal bacteriostatic concentration
[23] = system: Lactobacillus casei - ATCC 7469; conditions: Lacticaseibacillus casei, ATCC7469, read-out: Minimal bacteriostatic concentration
[24] = system: Bacillus subtilis ATCC 6633; conditions: ATCC6633, read-out: Minimal bacteriostatic concentration
[25] = system: Bacillus subtilis (strain ZO 5 A, Fac. Phie); conditions: read-out: Minimal bacteriostatic concentration
[26] = system: Bacillus subtilis (strain 3 R 9575, Merck - ATCC 9524); conditions: ATCC9524, read-out: Minimal bacteriostatic concentration
[27] = system: Bacillus cereus ATCC 6630; conditions: ATCC6630, read-out: Minimal bacteriostatic concentration
[28] = system: Bacillus brevis ATCC 8185; conditions: Brevibacillus brevis, ATCC8185, read-out: Minimal bacteriostatic concentration
Bacillus mycoides = conditions: read-out: Minimal bacteriostatic concentration
[29] = system: Bacillus megatherium (NRRL B 1125); conditions: read-out: Minimal bacteriostatic concentration
[30] = system: Mycobacterium smegmatis - ATCC 607; conditions: Mycolicibacterium smegmatis, ATCC607, read-out: Minimal bacteriostatic concentration
[31] = system: Mycobacterium phlei (Bacteriological Institute of Lyon); conditions: Mycolicibacterium phlei, read-out: Minimal bacteriostatic concentration
[32] = system: Mycobacterium para-smegmatis (A 75 - Lausanne); conditions: read-out: Minimal bacteriostatic concentration

## COc1cccc2c1C(=O)c1c(O)c3c(c(O)c1C2=O)C[C@@](O)(C(C)=O)C[C@@H]3O[C@H]1C[C@H](N)[C@H](O)[C@H](C)O1 [13057 RP daunorubicin, daunorubicin]
[1]
  MIC: 5.2 µg/mL (≈ 9.86 µM)
[2]
  MIC: 5.3 µg/mL (≈ 10 µM)
[3]
  MIC: 7.1 µg/mL (≈ 13.5 µM)
[4]
  MIC: 4.8 µg/mL (≈ 9.1 µM)
[5]
  MIC: 2.1 µg/mL (≈ 3.98 µM)
[6]
  MIC: 5.2 µg/mL (≈ 9.86 µM)
[7]
  MIC: 5.3 µg/mL (≈ 10 µM)
[8]
  MIC: 3.8 µg/mL (≈ 7.2 µM)
[9]
  MIC: 3.9 µg/mL (≈ 7.39 µM)
[10]
  MIC: 1.9 µg/mL (≈ 3.6 µM)
[11]
  MIC: 5.8 µg/mL (≈ 11 µM)
[12]
  MIC: 6.3 µg/mL (≈ 11.9 µM)
[13]
  MIC: 2.5 µg/mL (≈ 4.74 µM)
[14]
  MIC: 6.7 µg/mL (≈ 12.7 µM)
[15]
  MIC: 1.2 µg/mL (≈ 2.27 µM)
Sarcina alba (Fac.Phie)
  MIC: 3.3 µg/mL (≈ 6.26 µM)
[16]
  MIC: 19 µg/mL (≈ 36 µM)
[17]
  MIC: 30 µg/mL (≈ 56.9 µM)
[18]
  MIC: 43 µg/mL (≈ 81.5 µM)
[19]
  MIC: 1.6 µg/mL (≈ 3.03 µM)
[20]
  MIC: 0.89 µg/mL (≈ 1.69 µM)
[21]
  MIC: 2.2 µg/mL (≈ 4.17 µM)
[22]
  MIC: 1.7 µg/mL (≈ 3.22 µM)
[23]
  MIC: 1.2 µg/mL (≈ 2.27 µM)
[24]
  MIC: 1.2 µg/mL (≈ 2.27 µM)
[25]
  MIC: 1.5 µg/mL (≈ 2.84 µM)
[26]
  MIC: 1.8 µg/mL (≈ 3.41 µM)
[27]
  MIC: 2.2 µg/mL (≈ 4.17 µM)
[28]
  MIC: 1.4 µg/mL (≈ 2.65 µM)
Bacillus mycoides
  MIC: 1.8 µg/mL (≈ 3.41 µM)
[29]
  MIC: 1.3 µg/mL (≈ 2.46 µM)
[30]
  MIC: 1.2 µg/mL (≈ 2.27 µM)
[31]
  MIC: 5 µg/mL (≈ 9.48 µM)
[32]
  MIC: 2.2 µg/mL (≈ 4.17 µM)
